The values that follow come from US11827628B2, “Compositions and methods for inhibition of the JAK pathway” (Rigel Pharmaceuticals, Inc., priority 2005, dated 2023).

The subject of one assay is Primary human T-cells. Briefly: Primary Human T-Cell Proliferation Assay Stimulated with IL-2 (CellTiter-Glo). The class given is cell-based. The conditions noted are these: Homo sapiens, T-cell, primary human T-cells stimulated with IL-2, proliferation; read-out: IC50, Example 42. In outline: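 IC50 derived from CellTiter-Glo ATP signal after 72 hours of IL-2-driven proliferation at 37° C. Cells: primary human T-cells from blood, stimulated beforehand 3-4 days on anti-CD3/anti-CD28 with IL-2, then rested from IL-2 before compound exposure in duplicate; IL-2-free wells served as unstimulated control.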
(In general: Cellular ATP, detected with luciferase, serves as a proxy for viable cell number.)

The subject of assay [1] is IL-4 stimulated expression of CD23 in human Ramos B cells (JAK-1 and JAK-3). Briefly: Assay for Ramos B-Cell Line Stimulated with IL-4 (CD23 upregulation, FACS). The class given is cell-based. The conditions noted are these: Homo sapiens, Ramos, Ramos B cells stimulated with IL-4, CD23 expression by FACS; read-out: IC50, Example 41. In outline:
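Read-out is surface CD23 by FACS after anti-CD23-PE staining, giving IC50. Before this, cells were stimulated 20-24 h with 50 units/mL (final) human IL-4, following 1 h compound or vehicle pre-treatment at 37 °C; log-phase Ramos B cells, 5×10^4 per well in 5% serum RPMI.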
(In flow cytometry, cells or beads pass a laser one at a time.)

For the compound `Cc1ccc(Nc2ncc(F)c(Nc3ccc(-c4cnco4)cc3)n2)cc1S(N)(=O)=O` [IV-6, N2-(3-Aminosulfonyl-4-methylphenyl)-5-fluoro-N4-[4-(1,3-oxazol-5-yl)phenyl]-2,4-pyrimidinediamine], the IC50 (in general, the concentration that gives 50% inhibition) with Primary human T-cells worked out at 132 nM; in assay [1], 103 nM.

Consider `C#CCn1ccc2cc(Nc3nc(Nc4ccc(C)c(S(N)(=O)=O)c4)ncc3F)ccc21` [IX-1, N2-(3-Aminosulfonyl-4-methylphenyl)-5-fluoro-N4-[1-(propyn-3-yl)indol-5-yl]-2,4-pyrimidinediamine], for which the concentration for half-maximal inhibition (IC50) was determined as 581 nM in the assay with Primary human T-cells and 89.3 nM in assay [1].

Consider `C#CCn1ccc2cc(Nc3nc(Nc4cccc(S(N)(=O)=O)c4)ncc3F)ccc21` [IX-2, N2-(3-Aminosulfonylphenyl)-5-fluoro-N4-[1-(propyn-3-yl)indol-5-yl]-2,4-pyrimidinediamine], for which the concentration for half-maximal inhibition (IC50) amounted to 282 nM in the assay with Primary human T-cells and 79.5 nM in assay [1].

Turning to `Cc1ccc(Nc2ncc(F)c(Nc3ccc4c(CC#N)c[nH]c4c3)n2)cc1S(N)(=O)=O` [IX-11, N2-(3-Aminosulfonyl-4-methylphenyl)-N4-(3-cyanomethyl-1H-indol-6-yl)-5-fluoro-2,4-pyrimidinediamine], the IC50 came out at 215 nM in the assay with Primary human T-cells and 115 nM in assay [1].

With `N#CCc1c[nH]c2cc(Nc3nc(Nc4cccc(S(N)(=O)=O)c4)ncc3F)ccc12` [IX-12, N2-(3-Aminosulfonylphenyl)-N4-(3-cyanomethyl-1H-indol-6-yl)-5-fluoro-2,4-pyrimidinediamine], the half-maximal inhibitory concentration (IC50) in the assay on Primary human T-cells was found to be 117 nM; in assay [1], 97.3 nM.

In the case of `N#CCc1c[nH]c2ccc(Nc3nc(Nc4cccc(S(N)(=O)=O)c4)ncc3F)cc12` [IX-13, N2-(3-Aminosulfonylphenyl)-N4-(3-cyanomethyl-1H-indol-5-yl)-5-fluoro-2,4-pyrimidinediamine], the IC50 in the assay on Primary human T-cells came out at 430 nM; in assay [1], 138 nM.

As for `Cc1ccc(Nc2ncc(F)c(Nc3ccc4[nH]cc(CC#N)c4c3)n2)cc1S(N)(=O)=O` [IX-14, N2-(3-Aminosulfonyl-4-methylphenyl)-N4-(3-cyanomethyl-1H-indol-5-yl)-5-fluoro-2,4-pyrimidinediamine], the IC50 with Primary human T-cells was 656 nM; in assay [1], 57.4 nM.

On to `N#CCc1c[nH]c2c(Nc3nc(Nc4cccc(S(N)(=O)=O)c4)ncc3F)cccc12` [IX-15, N2-(3-Aminosulfonylphenyl)-N4-(3-cyanomethyl-1H-indol-7-yl)-5-fluoro-2,4-pyrimidinediamine], for which the IC50 in the assay on Primary human T-cells amounted to 157 nM; in assay [1], 217 nM.

With `Cc1ccc(Nc2ncc(F)c(Nc3cccc4c(CC#N)c[nH]c34)n2)cc1S(N)(=O)=O` [IX-16, N2-(3-Aminosulfonyl-4-methylphenyl)-N4-(3-cyanomethyl-1H-indol-7-yl)-5-fluoro-2,4-pyrimidinediamine], the half-maximal inhibitory concentration (IC50) in the assay on Primary human T-cells amounted to 223 nM; in assay [1], 210 nM.

For `NS(=O)(=O)c1cccc(Nc2ncc(F)c(Nc3ccc(C(=O)N4CCSCC4)cc3)n2)c1` [IX-34, N2-(3-Aminosulfonylphenyl)-5-fluoro-N4-[4-(4-thiomorpholinyl)carbonylphenyl]-2,4-pyrimidinediamine], the IC50 stood at 576 nM with Primary human T-cells and 582 nM in assay [1].

As for `Cc1ccc(Nc2ncc(F)c(Nc3ccc(C(=O)N4CCSCC4)cc3)n2)cc1S(N)(=O)=O` [IX-35, N2-(3-Aminosulfonyl-4-methylphenyl)-5-fluoro-N4-[4-(4-thiomorpholinyl)carbonylphenyl]-2,4-pyrimidinediamine], the IC50 in the assay on Primary human T-cells amounted to 866 nM; in assay [1], 455 nM.

Consider `COc1cc(Nc2nc(Nc3ccc(C)c(S(N)(=O)=O)c3)ncc2F)ccc1Cl` [VI-5, N2-(3-Aminosulfonyl-4-methylphenyl)-N4-(4-chloro-3-methoxyphenyl)-5-fluoro-2,4-pyrimidinediamine], for which the concentration for half-maximal inhibition (IC50) in the assay on Primary human T-cells amounted to 718 nM; in assay [1], 40.5 nM.

As for `Cc1ccc(Nc2ncc(F)c(Nc3ccc(Cl)c(Cl)c3)n2)cc1S(N)(=O)=O` [VI-6, N2-(3-Aminosulfonyl-4-methylphenyl)-N4-(3,4-dichlorophenyl)-5-fluoro-2,4-pyrimidinediamine], the 50% inhibitory concentration (IC50) in the assay on Primary human T-cells was found to be 1450 nM; in assay [1], 37.5 nM.

Regarding `COc1cc(Nc2nc(Nc3ccc(Cl)c(S(N)(=O)=O)c3)ncc2F)ccc1Cl` [VI-11, N2-(3-Aminosulfonyl-4-chlorophenyl)-N4-(4-chloro-3-methoxyphenyl)-5-fluoro-2,4-pyrimidinediamine], the figures for the concentration for half-maximal inhibition (IC50) (in the assay on Primary human T-cells; in assay [1]) were 4620 nM and 259 nM, respectively.

For the compound `COc1ccc(Nc2nc(Nc3cc(Cl)c(C)c(S(N)(=O)=O)c3)ncc2F)cc1Cl` [VI-13, N2-(3-Aminosulfonyl-5-chloro-4-methylphenyl)-N4-(3-chloro-4-methoxyphenyl)-5-fluoro-2,4-pyrimidinediamine], the 50% inhibitory concentration (IC50) was determined as 1350 nM in the assay on Primary human T-cells and 96.5 nM in assay [1].

In the case of `COc1ccc(Nc2nc(Nc3cc(C)c(F)c(S(N)(=O)=O)c3)ncc2F)cc1Cl` [VI-15, N2-(3-Aminosulfonyl-4-fluoro-5-methylphenyl)-N4-(3-chloro-4-methoxyphenyl)-5-fluoro-2,4-pyrimidinediamine], the concentration for half-maximal inhibition (IC50) in the assay on Primary human T-cells worked out at 469 nM; in assay [1], 45 nM.

Turning to `COc1ccc(Nc2nc(Nc3cc(C)c(Cl)c(S(N)(=O)=O)c3)ncc2F)cc1Cl` [VI-17, N2-(3-Aminosulfonyl-4-chloro-5-methylphenyl)-N4-(3-chloro-4-methoxyphenyl)-5-fluoro-2,4-pyrimidinediamine], the results for the IC50 (in the assay on Primary human T-cells; in assay [1]) were 244 nM and 43.4 nM, respectively.

Regarding `Cc1cc(Nc2ncc(F)c(Nc3ccc(OC(F)(F)F)c(Cl)c3)n2)cc(S(N)(=O)=O)c1Cl` [VI-18, N2-(3-Aminosulfonyl-4-chloro-5-methylphenyl)-N4-(3-chloro-4-trifluoromethoxyphenyl)-5-fluoro-2,4-pyrimidinediamine], the figures for the half-inhibitory concentration (IC50) (in the assay on Primary human T-cells; in assay [1]) were 4370 nM and 257 nM, respectively.

For `COc1ccc(Nc2nc(Nc3cccc(S(N)(=O)=O)c3)ncc2Br)cc1Cl` [VI-26, N2-(3-aminosulfonylphenyl)-5-bromo-N4-(3-chloro-4-methoxyphenyl)-2,4-pyrimidinediamine], the IC50 was determined as 28.9 nM in the assay on Primary human T-cells and 44.4 nM in assay [1].

For the compound `COc1c(C)cc(Nc2ncc(F)c(Nc3ccc(C(C)(C)C)cc3)n2)cc1S(N)(=O)=O` [VI-37, N2-(3-Aminosulfonyl-4-methoxy-5-methylphenyl)-N4-(4-tert-butylphenyl)-5-fluoro-2,4-pyrimidinediamine], the 50% inhibitory concentration (IC50) in the assay on Primary human T-cells was determined as 1080 nM; in assay [1], 69.2 nM.

`COc1ccc(Nc2nc(Nc3ccc(C(C)C)c(S(N)(=O)=O)c3)ncc2F)cc1Cl` [VI-45, N2-(3-Aminosulfonyl-4-iso-propylphenyl)-N4-(3-chloro-4-methoxy-phenyl)-5-fluoro-2,4-pyrimidinediamine]: the IC50 with Primary human T-cells was 1330 nM; in assay [1], 108 nM.

For `CNC(=O)OCc1cccc(Nc2nc(Nc3ccc(C)c(S(N)(=O)=O)c3)ncc2F)c1` [VI-49, N2-(3-Aminosulfonyl-4-methylphenyl)-5-fluoro-N4-[3-(methylaminocarbonyloxymethyl)phenyl]-2,4-pyrimidinediamine], the values for the IC50 (with Primary human T-cells; in assay [1]) were 1260 nM and 268 nM, respectively.

With `Cc1ccc(Nc2ncc(F)c(Nc3ccc(C(F)(F)F)cc3)n2)cc1S(N)(=O)=O` [VI-50, N2-(3-Aminosulfonyl-4-methylphenyl)-5-fluoro-N4-(4-trifluoromethylphenyl)-2,4-pyrimidinediamine], the figures for the IC50 (in the assay on Primary human T-cells; in assay [1]) were 944 nM and 217 nM, respectively.

On to `NS(=O)(=O)c1cccc(Nc2ncc(F)c(Nc3ccc(C(F)(F)F)cc3)n2)c1` [VI-51, N2-(3-Aminosulfonylphenyl)-5-fluoro-N4-(4-trifluoromethylphenyl)-2,4-pyrimidinediamine], for which the figures for the IC50 (with Primary human T-cells; in assay [1]) were 547 nM and 152 nM, respectively.

Take `Cc1ccc(Nc2ncc(F)c(Nc3ccc(CO)cc3)n2)cc1S(N)(=O)=O` [VI-52, N2-(3-Aminosulfonyl-4-methylphenyl)-5-fluoro-N4-(4-hydroxymethylphenyl)-2,4-pyrimidinediamine]: the 50% inhibitory concentration (IC50) with Primary human T-cells is 162 nM; in assay [1] it was 168 nM.

Turning to `C#CCOc1ccc(Nc2nc(Nc3ccc(C)c(S(N)(=O)=O)c3)ncc2F)cc1` [VI-53, N2-(3-Aminosulfonyl-4-methylphenyl)-5-fluoro-N4-[4-(prop-2-ynyloxy)phenyl]-2,4-pyrimidinediamine], the concentration for half-maximal inhibition (IC50) in the assay on Primary human T-cells was 181 nM; in assay [1] it was 56.3 nM.

In the case of `C=Cc1ccc(Nc2nc(Nc3ccc(C)c(S(N)(=O)=O)c3)ncc2F)cc1` [VI-54, N2-(3-Aminosulfonyl-4-methylphenyl)-5-fluoro-N4-(4-vinylphenyl)-2,4-pyrimidinediamine], the values for the 50% inhibitory concentration (IC50) (in the assay with Primary human T-cells; in assay [1]) were 967 nM and 147 nM, respectively.

On to `C#CCOc1ccc(Nc2nc(Nc3ccc(Cl)c(S(N)(=O)=O)c3)ncc2F)cc1` [VI-55, N2-(3-Aminosulfonyl-4-chlorophenyl)-5-fluoro-N4-[4-(prop-2-ynyloxy)phenyl]-2,4-pyrimidinediamine], for which the IC50 in the assay with Primary human T-cells was 625 nM; in assay [1], 122 nM.

Regarding `C#CCOc1ccc(Nc2nc(Nc3ccc(C)c(S(N)(=O)=O)c3)ncc2F)cc1Cl` [VI-59, N2-(3-Aminosulfonyl-4-methylphenyl)-N4-[3-chloro-4-(prop-2-ynyloxy)phenyl]-5-fluoro-2,4-pyrimidinediamine], the IC50 is 340 nM in the assay with Primary human T-cells and 76 nM in assay [1].

On to `C#CCOc1ccc(Nc2nc(Nc3ccc(C)c(S(N)(=O)=O)c3)ncc2F)cc1F` [VI-60, N2-(3-Aminosulfonyl-4-methylphenyl)-5-fluoro-N4-[3-fluoro-4-(prop-2-ynyloxy)phenyl]-2,4-pyrimidinediamine], for which the IC50 in the assay with Primary human T-cells was found to be 187 nM; in assay [1], 86.9 nM.
